The values that follow come from patent publication US6479509B1, “Method of promoting smoking cessation” (priority 2000, dated 2002).

One assay addresses T1, Dopamine transporter (Rattus norvegicus, UniProt P23977).
T1 construct: from tissue; host or cells: brain

The subject of assay [1] is nicotine-induced antinociception. Kind of assay: Blockade of nicotine-induced antinociception, tail-flick test. Format: in vivo, mice. Particulars: for AD50 Tail-Flick: blocking antinociception of nicotine 2.5 mg/kg, systemic administration. The procedure: Anitinociception. The tail-flick method of D'Amour and Smith (1941) as modified by Dewey et al. (1970) was used. A control response (2-4 s) was determined for each animal before treatment, and a test latency was determined after drug administration. To minimize tissue damage, a maximum latency of 10 s was imposed. Antinociceptive response was calculated as percent maximum possible effect (% MPE), where % MPE=[((test-control)/(10-control))×100], Groups of 8 to 12 animals were used for each dose and for each treatment. Mice were tested 5 min after nicotine administration for the dose-response evaluation. Antagonism studies were carried out by pretreating the mice s.c. with either saline or various drugs at different times before nicotine. The animals were tested 5 min after administration of nicotine.
(§1) Data were analyzed statistically by an analysis of variance followed by the Fisher's P least-significant difference multiple comparison test. The null hypothesis was rejected at the […].

The next assay has as its target T2, Serotonin transporter (Rattus norvegicus, UniProt P31652).
T2 construct: from tissue; host or cells: brain

In assay [2] the target is T3, Norepinephrine transporter (Rattus norvegicus, UniProt Q63380).
T3 construct: from tissue; host or cells: brain

Assay [3] relates to nicotine-induced hypothermia. Kind of assay: Blockade of nicotine-induced hypothermia (body temperature). Particulars: for AD50 Hypothermia: blocking nicotine-induced hypothermia, systemic administration. In kind it is in vivo, mice. The procedure:
Body Temperature. Rectal temperature was measured by a thermistor probe (inserted 24 mm) and digital thermometer (Yellow Springs Instrument Co., Yellow Springs, Ohio). Readings were taken just before and at 30 min after the s.c. injection of nicotine. For antagonism studies, mice were pretreated with either saline or various drugs 10 min before nicotine. The difference in rectal temperature before and after treatment was calculated for each mouse. The ambient temperature of the laboratory varied from 21 to 24° C. from day to day.
as §1

The mark [4] stands for this setting: brain; read-out: Dopamine [3H]WIN 35,428 IC50; cited from earlier work.
[5] abbreviates: brain; read-out: Serotonin [3H]Paroxetine IC50; cited from earlier work.
Where [6] appears, read: brain; read-out: Norepinephrine [3H]Nisoxetime IC50; cited from earlier work.
Setting [7] is: read-out: Dopamine [3H]WIN 35,428 IC50; brain; cited from earlier work.
Setting [8] is: read-out: Norepinephrine [3H]Nisoxetime IC50; brain; cited from earlier work.

Entries after “also recorded” stand apart in the source; their conditions may differ. Where two headings read alike, the source gives them in different places.

T3 sequence (Q63380 1-617): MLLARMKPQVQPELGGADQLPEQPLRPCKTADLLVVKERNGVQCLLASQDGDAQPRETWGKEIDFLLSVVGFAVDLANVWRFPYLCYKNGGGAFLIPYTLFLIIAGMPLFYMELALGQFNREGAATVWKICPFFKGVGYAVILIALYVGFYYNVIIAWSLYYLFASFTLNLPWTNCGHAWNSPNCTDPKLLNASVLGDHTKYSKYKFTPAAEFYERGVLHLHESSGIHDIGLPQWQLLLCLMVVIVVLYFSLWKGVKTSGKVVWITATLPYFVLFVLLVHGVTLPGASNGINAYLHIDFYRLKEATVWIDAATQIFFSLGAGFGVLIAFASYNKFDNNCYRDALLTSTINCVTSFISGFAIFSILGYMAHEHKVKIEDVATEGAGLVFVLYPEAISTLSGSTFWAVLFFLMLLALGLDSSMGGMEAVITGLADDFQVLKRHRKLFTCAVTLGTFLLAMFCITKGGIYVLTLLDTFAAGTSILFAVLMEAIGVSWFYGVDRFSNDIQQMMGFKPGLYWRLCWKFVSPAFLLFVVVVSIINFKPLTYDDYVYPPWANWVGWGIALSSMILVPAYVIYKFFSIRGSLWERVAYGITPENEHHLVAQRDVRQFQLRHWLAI
T2 sequence (P31652 whole entry): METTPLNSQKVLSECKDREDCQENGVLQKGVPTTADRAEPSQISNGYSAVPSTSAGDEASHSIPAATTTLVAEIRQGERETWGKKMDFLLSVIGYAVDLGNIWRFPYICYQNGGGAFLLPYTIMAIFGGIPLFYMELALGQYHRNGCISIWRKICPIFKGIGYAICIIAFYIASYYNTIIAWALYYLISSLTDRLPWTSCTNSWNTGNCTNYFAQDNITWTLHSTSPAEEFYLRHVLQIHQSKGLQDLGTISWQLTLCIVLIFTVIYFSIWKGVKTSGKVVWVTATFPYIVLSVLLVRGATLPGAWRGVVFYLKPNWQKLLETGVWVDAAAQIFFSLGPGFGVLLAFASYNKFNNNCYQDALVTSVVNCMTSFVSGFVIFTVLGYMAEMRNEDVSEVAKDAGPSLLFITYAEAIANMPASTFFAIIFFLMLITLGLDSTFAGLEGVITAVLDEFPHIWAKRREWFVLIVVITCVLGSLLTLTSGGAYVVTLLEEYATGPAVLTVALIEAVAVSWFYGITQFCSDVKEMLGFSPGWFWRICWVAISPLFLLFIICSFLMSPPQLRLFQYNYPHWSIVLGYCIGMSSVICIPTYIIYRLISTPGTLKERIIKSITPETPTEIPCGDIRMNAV
T1 sequence (P23977 whole entry): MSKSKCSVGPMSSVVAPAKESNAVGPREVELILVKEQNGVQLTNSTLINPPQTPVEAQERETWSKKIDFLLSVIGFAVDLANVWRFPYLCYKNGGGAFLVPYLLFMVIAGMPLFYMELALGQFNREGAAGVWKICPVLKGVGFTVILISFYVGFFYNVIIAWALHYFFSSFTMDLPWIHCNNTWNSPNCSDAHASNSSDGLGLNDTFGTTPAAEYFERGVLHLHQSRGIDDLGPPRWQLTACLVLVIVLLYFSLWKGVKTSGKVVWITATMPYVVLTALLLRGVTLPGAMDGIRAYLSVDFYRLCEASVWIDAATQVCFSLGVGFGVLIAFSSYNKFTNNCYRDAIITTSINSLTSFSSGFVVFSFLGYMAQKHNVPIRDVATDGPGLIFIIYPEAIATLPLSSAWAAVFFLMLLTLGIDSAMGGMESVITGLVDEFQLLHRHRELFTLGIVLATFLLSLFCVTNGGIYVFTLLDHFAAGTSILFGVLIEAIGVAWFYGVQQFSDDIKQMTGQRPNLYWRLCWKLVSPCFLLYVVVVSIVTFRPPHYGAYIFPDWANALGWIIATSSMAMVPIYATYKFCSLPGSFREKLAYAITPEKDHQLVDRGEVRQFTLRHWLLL

`COC(=O)[C@H]1[C@@H](c2ccc(Br)cc2)C[C@H]2CC[C@@H]1N2C` [RTI-51]: the IC50 is 1.69 nM at Dopamine transporter (setting [4]) and 10.6 nM at Serotonin transporter (setting [5]). In addition, the “AD50 Tail-Flick” value in assay [1] (mice) is 1.0 μmol/hg.
Take `COC(=O)[C@H]1C(c2ccc(I)cc2)C[C@@H]2CC[C@H]1N2C` (stereo partly drawn) [RTI-55]: the values for the IC50 (at Dopamine transporter (setting [4]); in assay [2] (setting [6]); on Serotonin transporter (setting [5])) were 1.26 nM, 63 nM and 4.2 nM, respectively. For the same compound, in assay [1] (mice), the “AD50 Tail-Flick” value amounted to 0.9 μmol/hg. Further, the “AD50 Hypothermia” value in assay [3] (mice) is 1.2 μmol/hg. In addition, the “Blockade of nicotine-induced hypothermia (in words)” value in assay [3] (mice) is given as “significantly blocked”.
Turning to `CN1[C@H]2CC[C@@H]1[C@@H](C(=O)O)[C@@H](c1ccc(Cl)cc1)C2` [RTI-70], the IC50 is 2070 nM at Dopamine transporter (setting [4]), above 200000 nM in assay [2] (setting [6]) and 59500 nM on Serotonin transporter (setting [5]). The “Tail-flick, % blockade @ dose” value in assay [1] (@ 90 μmol/hg) turned out to be 0% @ 90. For the same compound, the “Relative potency in blocking nicotine's antinociceptive effect (in words, comparator in the value)” value (“Relative potency” for short) in assay [1] (tail-flick, mice) is given as “much less potent than cocaine”. Moreover, the “Hypothermia, % blockade @ dose” value in assay [3] (@ 90 μmol/hg) was 40% @ 90.
On to `COC(=O)[C@H]1[C@@H](c2ccc(Cl)cc2)C[C@@H]2CC[C@H]1N2` [RTI-110], for which the results for the IC50 (on Dopamine transporter (setting [4]); in assay [2] (setting [6]); at Serotonin transporter (setting [5])) were 0.62 nM, 5.45 nM and 4.1 nM, respectively. Besides, the “AD50 Tail-Flick” value in assay [1] (mice) was 1.0 μmol/hg. The “Fold more potent than cocaine in blocking nicotine's antinociceptive effect” value (shortened to “Fold more potent than cocaine”) in assay [1] (tail-flick, mice) came out at 3 fold.
In the case of `COC(=O)[C@H]1[C@@H](c2ccc(Cl)c(Cl)c2)C[C@@H]2CC[C@H]1N2C` [RTI-111], the IC50 at Dopamine transporter (setting [4]) is 0.79 nM; in assay [2] (setting [6]), 17.9 nM; at Serotonin transporter (setting [5]), 3.1 nM. In addition, the “AD50 Tail-Flick” value in assay [1] (mice) is reported as 1.3 μmol/hg. In addition, in assay [1] (tail-flick, mice), the “Fold more potent than cocaine” value was around 2.5 fold.
For the compound `COC(=O)[C@H]1[C@@H](c2ccc(Cl)c(C)c2)C[C@@H]2CC[C@H]1N2C` [RTI-112], the IC50 on Dopamine transporter (setting [4]) is 0.8 nM; in assay [2] (setting [6]), 36.2 nM; on Serotonin transporter (setting [5]), 10.5 nM. Besides, the “AD50 Tail-Flick” value in assay [1] (mice) was 3.5 μmol/hg. For the same compound, the “Relative potency” value in assay [1] (tail-flick, mice) is listed as “approximately the same activity as cocaine; also recorded: approximately twice as potent as WIN 35,065-2”. The “AD50 Hypothermia” value in assay [3] (mice) is 1.5 μmol/hg. Moreover, the “Blockade of nicotine-induced hypothermia (in words)” value in assay [3] (mice) is “significantly blocked”.
As for `CN1[C@H]2CC[C@@H]1[C@@H](C(=O)Oc1ccccc1)[C@@H](c1ccc(Cl)cc1)C2` [RTI-113], the IC50 on Dopamine transporter (setting [4]) was 1.98 nM; in assay [2] (setting [6]) it was 2930 nM; at Serotonin transporter (setting [5]), 2340 nM. In assay [1] (mice), the “AD50 Tail-Flick” value was determined as 5.6 μmol/hg.
Turning to `Cc1ccc([C@H]2C[C@@H]3CC[C@H]([C@H]2C(=O)Oc2ccccc2)N3C)cc1` [RTI-120], the IC50 was 3.26 nM on Dopamine transporter (setting [4]), 5830 nM in assay [2] (setting [6]) and 24500 nM on Serotonin transporter (setting [5]). In assay [1] (mice), the “AD50 Tail-Flick” value came out at 4.0 μmol/hg. Besides, the “Relative potency” value in assay [1] (tail-flick, mice) is “only one-half as potent as RTI-32”.
Turning to `CC(C)OC(=O)C1C(c2ccc(I)cc2)CC2CCC1N2C` (stereo not drawn) [RTI-121], the IC50 on Dopamine transporter (setting [7]) was 0.4 nM. For the same compound, the “AD50 Tail-Flick” value in assay [1] (mice) was 0.3 μmol/hg. Besides, in assay [1] (tail-flick, mice), the “Fold more potent than cocaine” value was found to be 10 fold. Also, in assay [2] (setting [8]), the IC50 is 285 nM. Further, in assay [3] (mice), the “AD50 Hypothermia” value amounted to 49 μmol/hg, the “Blockade of nicotine-induced hypothermia (in words)” value is “significantly blocked” and the “Fold less potent in blocking nicotine hypothermia than antinociception” value was above 100 fold.
With `CN1C2CCC1C(C(=O)N1CCCC1)C(c1ccc(Cl)cc1)C2` (stereo not drawn) [RTI-147], the IC50 was 1.38 nM on Dopamine transporter (setting [7]), 3950 nM in assay [2] (setting [8]) and 12400 nM at Serotonin transporter (setting [5]). Further, the “AD50 Tail-Flick” value in assay [1] (mice) was 5.7 μmol/hg. Further, the “Relative potency” value in assay [1] (tail-flick, mice) was “about one-half as potent as cocaine”.
With `CN1C2CCC1C(C(=O)N1CCCC1)C(c1ccc(I)cc1)C2` (stereo not drawn) [RTI-229], the results for the IC50 (at Dopamine transporter (setting [7]); in assay [2] (setting [8]); at Serotonin transporter (read-out: Serotonin [3H]Paroxetine IC50; brain; cited from earlier work)) were 0.37 nM, 990 nM and 1790 nM, respectively. Further, the “AD50 Tail-Flick” value in assay [1] (mice) is reported as 3.6 μmol/hg. Further, the “Relative potency” value in assay [1] (tail-flick, mice) was “about the same potency as cocaine”.
On to `COC(=O)[C@H]1[C@@H](c2ccccc2)C[C@@H]2CC[C@H]1N2C` [WIN 35,065-2, reference compound], for which the IC50 at Dopamine transporter (setting [4]) was 23 nM. The “AD50 Tail-Flick” value in assay [1] (mice) worked out at 8.0 μmol/hg. Besides, the “Times less potent than cocaine in blocking nicotine's antinociceptive effect” value in assay [1] (tail-flick, mice) was 2.5 times. Moreover, the IC50 in assay [2] (setting [6]) was 920 nM. In addition, in assay [3] (mice), the “AD50 Hypothermia” value is reported as 6.7 μmol/hg and the “Blockade of nicotine-induced hypothermia (in words)” value was “significantly blocked”.
For the compound `COC(=O)[C@H]1[C@@H](OC(=O)c2ccccc2)C[C@@H]2CC[C@H]1[N+]2(C)C.[I-]` [cocaine methiodide, reference compound], the “Blockade of nicotine-induced antinociception (in words)” value in assay [1] (tail-flick, mice) was “failed to significantly block”; in assay [1] (tail-flick, mice, listed as cocaine-methiodide) it was “Lack of blockade”.
